In patent publication EP4206196A1, “PYRIMIDINE SUBSTITUTED DERIVATIVES AS TYK2 INHIBITORS” (Almirall S.A., priority 2021, dated 2023):

Experiments:
[1] = molecular target: T1, TYK2 (JH2domain-pseudokinase) (Homo sapiens, UniProt P29597); experiment: TYK2 JH2 domain binding assay (KINOMEscan)
T1 construct: TYK2 (JH2domain-pseudokinase)-tagged T7 phage strains were prepared in an E. coli host derived from the BL21 strain; made in house; host or cells: E. coli BL21-derived host (T7 phage) or HEK-293 cells
Protocol: TYK2 (JH2domain-pseudokinase) KINOMEscan assay. For the assay, TYK2 (JH2domain-pseudokinase)-tagged T7 phage strains were prepared in an E. coli host derived from the BL21 strain.E. coli were grown to log-phase and infected with T7 phage and incubated with shaking at 32°C until lysis. The lysates were centrifuged and filtered to remove cell debris. The remaining TYK2 (JH2domain-pseudokinase) were produced in HEK-293 cells and subsequently tagged with DNA for qPCR detection. Streptavidin-coated magnetic beads were treated with biotinylated small molecule ligands for 30 minutes at room temperature to generate affinity resins for kinase assays. The liganded beads were blocked with excess biotin and washed with blocking buffer (SeaBlock (Pierce), 1% BSA, 0.05% Tween 20, 1 mM DTT) to remove unbound ligand and to reduce non-specific binding. Binding reactions were assembled by combining TYK2 (JH2domain-pseudokinase), liganded affinity beads, and test compounds in 1x binding buffer (20% SeaBlock, 0.17x PBS, 0.05% Tween 20, 6 mM DTT). Test compounds were prepared as 111X stocks in 100% DMSO. Kds were determined using an 11-point 3-fold compound dilution series with three DMSO control points. All compounds for Kd measurements are distributed by acoustic transfer (non-contact dispensing) in 100% DMSO. The compounds were then diluted directly into the assays such that the final concentration of DMSO was 0.9%. All reactions performed in polypropylene 384-well plate. Each was a final volume of 0.02 ml. The assay plates were incubated at room temperature with shaking for 1 hour and the affinity beads were washed with wash buffer (1x PBS, 0.05% Tween 20). The beads were then re-suspended in elution buffer (1x PBS, 0.05% Tween 20, 0.5 µM non-biotinylated affinity ligand) and incubated at room temperature with shaking for 30 minutes. The kinase concentration in the eluates was measured by qPCR. […]
An 11-point 3-fold serial dilution of each test compound was prepared in 100% DMSO at 100x final test concentration and subsequently diluted to 1x in the assay (final DMSO concentration = 1%). Most Kds were determined using a compound top concentration = 30,000 nM. If the initial Kd determined was < 0.5 nM (the lowest concentration tested), the measurement was repeated with a serial dilution starting at a lower top concentration.
Curves were fitted using a non-linear least square fit with the Levenberg-Marquardt algorithm. […] TABLE 1: Kd Affinities for Tyk2 JH2 Domain Binding Assay.

[2] = system: STAT1/3 through TYK2/JAK1; experiment: IFNa induced STAT phosphorylation in HEK293 cells (SIE-bla reporter gene); type: cell-based; settings: Homo sapiens, HEK293; HEK293T-sie-bla cells, IFNa at EC80, 4 hours; read-out: Inhibition of IFNa induced STAT phosphorylation HEK293 cells IC50
Protocol: Stimulation of HEK293T-sie-bla cells with interferon alpha (INFa) activates the signaling pathway of STAT1/3 through TYK2/JAK1. In this assay, measurement of the activity of the reporter gene […]-lactamase expression was used as the readout.
CellSensorTM SIE-bla HEK293T cell line were purchased from Thermo Fisher Scientific (ref. #K1649B) and cultured as specified by the provider. A number of 30.000 cells per well (40 µl) were plated in a 384-well plate (Corning ref.# 3712) and cultured overnight at 37°C with 5% CO2 in a complete Optimem media (ThermoFisher ref. #11058-021) containing 0.5% (v/v) heat inactivated dialyzed FBS (Life Technologies ref. #26400044), 10 µM non-essential aminoacids NEAA (Sigma ref. #M7145), 100 µM Sodium Pyruvate (Gibco ref. #11360-039) and 100 U/mL Penicillin (Sigma ref. #P0781). Compounds were initially dissolved in 100% DMSO. Compound curves were then prepared using a 1/5 serial dilution (10 dilutions). The dilutions were directly diluted in complete Optimem media at 40-fold their final concentration in 20% DMSO. IFNa initial solution (R&D systems ref. #11100-1) was prepared at 10-fold its EC80 in complete Optimem media. Compounds and IFNa were added simultaneously to the wells with cells and incubated during 4 hours at 37°C (the final DMSO was 0.1%). The […]-lactamase substrate (LifeTechnologies ref.#K1138) was prepared at 6-fold its final concentration as specified by the provider. Then 10 µL of the mixture was added to the wells to stop the stimulation. Plate was left in the dark over-night. Then a FRET reading was performed on an appropriate plate reader.
All experiments were analysed using an ExcelFit template and the four-parameter log equation. […] TABLE 2: IC50 Inhibitions of IFNa induced STAT phosphorylation in HEK293 cells

T1 sequence (P29597 589-875 limits assumed): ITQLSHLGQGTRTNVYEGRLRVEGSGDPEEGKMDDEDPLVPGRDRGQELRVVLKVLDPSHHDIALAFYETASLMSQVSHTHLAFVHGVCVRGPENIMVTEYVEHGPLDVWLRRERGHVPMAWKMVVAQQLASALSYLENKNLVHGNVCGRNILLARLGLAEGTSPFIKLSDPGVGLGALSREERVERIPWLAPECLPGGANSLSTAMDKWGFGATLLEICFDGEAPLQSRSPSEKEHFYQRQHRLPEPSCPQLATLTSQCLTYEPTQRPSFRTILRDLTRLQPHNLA

Row | Structure (SMILES) | Kd [1] [nM] | IC50 [2] [nM]
1 | COc1c(C#N)cccc1Nc1cc(Nc2cc(C)nc(C)n2)ncn1 [Example 16, 3-[[6-[(2,6-dimethylpyrimidin-4-yl)amino]pyrimidin-4-yl]amino]-2-methoxy-benzonitrile] | 1 to 10 | > 1000
2 | COc1c(Nc2cc(Nc3cc(C)nc(C)n3)ncn2)ccc(F)c1F [Example 19, N4-(3,4-difluoro-2-methoxy-phenyl)-N6-(2,6-dimethylpyrimidin-4-yl)pyrimidine-4,6-diamine] | 1 to 10 | > 1000
3 | COc1cccc(Nc2cc(Nc3cc(C)nc(C)n3)ncn2)c1OC [Example 20, N4-(2,3-dimethoxyphenyl)-N6-(2,6-dimethylpyrimidin-4-yl)pyrimidine-4,6-diamine] | 0.2 to 1 | 100 to 1000
4 | COc1cc(C(F)(F)F)ccc1Nc1cc(Nc2cc(C)nc(C)n2)ncn1 [Example 22, N6-(2,6-dimethylpyrimidin-4-yl)-N4-[2-methoxy-4-(trifluoromethyl)phenyl]pyrimidine-4,6-diamine] | > 10 | 100 to 1000
5 | COc1cc(C#N)cnc1Nc1cc(Nc2cc(C)nc(C)n2)ncn1 [Example 27, 6-[[6-[(2,6-dimethylpyrimidin-4-yl)amino]pyrimidin-4-yl]amino]-5-methoxy-pyridine-3-carbonitrile] | > 10 | > 1000
6 | COc1c(Nc2cc(Nc3cc(C)nc(C)n3)ncn2)cccc1-c1ncc(F)cn1 [Example 31, N4-(2,6-dimethylpyrimidin-4-yl)-N6-[3-(5-fluoropyrimidin-2-yl)-2-methoxy-phenyl]pyrimidine-4,6-diamine] | 0.2 to 1 | 100 to 1000
7 | COc1c(Nc2cc(Nc3cc(C)ncn3)ncn2)cccc1-c1ncn(C)n1 [Example 33, N6-[2-methoxy-3-(1-methyl-1,2,4-triazol-3-yl)phenyl]-N4-(6-methylpyrimidin-4-yl)pyrimidine-4,6-diamine] | < 0.2 | 10 to 100
8 | [2H]C([2H])([2H])N(c1ccccc1Nc1cc(Nc2cc(C)nc(C)n2)ncn1)S(C)(=O)=O [Example 34, N-[2-[[6-[(2,6-dimethylpyrimidin-4-yl)amino]pyrimidin-4-yl]amino]phenyl]-N-(trideuteriomethyl)methanesulfonamide] | < 0.2 | < 10
9 | COc1c(Nc2cc(Nc3cc(C)nc(C)n3)ncn2)cccc1-c1nc(C)n(C)n1 [Example 39, N6-(2,6-dimethylpyrimidin-4-yl)-N4-[3-(1,5-dimethyl-1,2,4-triazol-3-yl)-2-methoxy-phenyl]pyrimidine-4,6-diamine] | 0.2 to 1 | 100 to 1000
10 | COc1c(Nc2cc(Nc3cc(C)nc(C)n3)ncn2)cccc1-c1nnn(C)n1 [Example 41, N4-(2,6-dimethylpyrimidin-4-yl)-N6-[2-methoxy-3-(2-methyltetrazol-5-yl)phenyl]pyrimidine-4,6-diamine] | < 0.2 | 10 to 100
11 | COc1c(Nc2cc(Nc3cc(C)nc(C)n3)ncn2)cccc1-c1ncn(C2COC2)n1 [Example 43, N4-(2,6-dimethylpyrimidin-4-yl)-N6-[2-methoxy-3-[1-(oxetan-3-yl)-1,2,4-triazol-3-yl]phenyl]pyrimidine-4,6-diamine] | 0.2 to 1 | 100 to 1000

Results, then the molecule that gave them:

Row | Kd [1] [nM] | IC50 [2] [nM] | Structure (SMILES)
12 | 0.2 to 1 | 10 to 100 | COc1c(Nc2cc(Nc3cc(C)nc(C)n3)ncn2)cccc1-c1cnn(C)c1 [Example 15, N4-(2,6-dimethylpyrimidin-4-yl)-N6-[2-methoxy-3-(1-methylpyrazol-4-yl)phenyl]pyrimidine-4,6-diamine]
13 | 1 to 10 | > 1000 | COc1c(Nc2cc(Nc3cc(C)nc(C)n3)ncn2)cccc1C(F)(F)F [Example 18, N6-(2,6-dimethylpyrimidin-4-yl)-N4-[2-methoxy-3-(trifluoromethyl)phenyl] pyrimidine-4,6-diamine]
14 | 1 to 10 | > 1000 | COc1cc(F)ccc1Nc1cc(Nc2cc(C)nc(C)n2)ncn1 [Example 21, N4-(2,6-dimethylpyrimidin-4-yl)-N6-(4-fluoro-2-methoxy-phenyl)pyrimidine-4,6-diamine]
15 | 1 to 10 | 100 to 1000 | COc1ccccc1Nc1cc(Nc2cc(C)nc(C)n2)ncn1 [Example 23, N6-(2,6-dimethylpyrimidin-4-yl)-N4-(2-methoxyphenyl)pyrimidine-4,6-diamine]
16 | < 0.2 | 10 to 100 | Cc1cc(Nc2cc(Nc3ccc(-c4cncn4C)cc3N(C)S(C)(=O)=O)ncn2)nc(C)n1 [Example 24, N-[2-[[6-[(2,6-dimethylpyrimidin-4-yl)amino]pyrimidin-4-yl]amino]-5-(3-methylimidazol-4-yl)phenyl]-N-methyl-methanesulfonamide]
17 | 0.2 to 1 | > 1000 | Cc1cc(Nc2cc(Nc3ccccc3P(C)(C)=O)ncn2)nc(C)n1 [Example 28, 4-N-(2-dimethylphosphorylphenyl)-6-N-(2,6-dimethylpyrimidin-4-yl)pyrimidine-4,6-diamine]
18 | 1 to 10 | > 1000 | COc1c(Nc2cc(Nc3cc(C)nc(C)n3)ncn2)cccc1-c1nc(C(F)(F)F)n(C)n1 [Example 29, N6-(2,6-dimethylpyrimidin-4-yl)-N4-[2-methoxy-3-[1-methyl-5-(trifluoromethyl)-1,2,4-triazol-3-yl]phenyl]pyrimidine-4,6-diamine]
19 | 0.2 to 1 | 100 to 1000 | COCc1nc(-c2cccc(Nc3cc(Nc4cc(C)nc(C)n4)ncn3)c2OC)no1 [Example 30, N4-(2,6-dimethylpyrimidin-4-yl)-N6-[2-methoxy-3-[5-(methoxymethyl)-1,2,4-oxadiazol-3-yl]phenyl]pyrimidine-4,6-diamine]
20 | 1 to 10 | > 1000 | COc1c(Nc2cc(Nc3cc(C)nc(C)n3)ncn2)cccc1-c1cc(C(F)(F)F)nn1C [Example 36, N6-(2,6-dimethylpyrimidin-4-yl)-N4-[2-methoxy-3-[2-methyl-5-(trifluoromethyl)pyrazol-3-yl]phenyl]pyrimidine-4,6-diamine]
21 | 0.2 to 1 | 10 to 100 | COc1c(Nc2cc(Nc3cc(C)nc(C)n3)ncn2)cccc1-c1nc(C)n(CC(F)(F)F)n1 [Example 38, N6-(2,6-dimethylpyrimidin-4-yl)-N4-[2-methoxy-3-[5-methyl-1-(2,2,2-trifluoroethyl)-1,2,4-triazol-3-yl]phenyl]pyrimidine-4,6-diamine]
22 | 1 to 10 | 100 to 1000 | COc1c(Nc2cc(Nc3cc(C)nc(C)n3)ncn2)cccc1-c1nc(C)nn1C [Example 40, N6-(2,6-dimethylpyrimidin-4-yl)-N4-[3-(2,5-dimethyl-1,2,4-triazol-3-yl)-2-methoxy-phenyl]pyrimidine-4,6-diamine]
23 | 1 to 10 | > 1000 | COc1c(Nc2cc(Nc3cc(C)nc(C)n3)ncn2)cccc1-c1ccnnc1 [Example 42, N6-(2,6-dimethylpyrimidin-4-yl)-N4-(2-methoxy-3-pyridazin-4-yl-phenyl)pyrimidine-4,6-diamine]
